Common to all, as to test: NCI anticancer screen, dose series, 48 h
Assay [1] relates to HCC-2998 colon.
In assay [2] the test system is HCT-116 colon.
The subject of assay [3] is IGROV1 ovarian.
Assay [4] concerns K-562 leukemia.
Assay [5] deals with MALME-3M melanoma.
Assay [6] relates to NCI-H226 lung.

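Values below derive from 48-hour exposures of cells grown in 96-well plates, with endpoints linearly interpolated between the two concentrations bracketing the appropriate inhibition level. The concentration for full growth arrest is given as TGI.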 Where a SMILES comes first, the peptide text is derived from it. The star is where a group is joined. Boc = CC(C)(C)OC(=O)*

As for `CC[C@H]1C=CCC[C@@]2(C[C@@H]3CC[C@@H]4[C@H](C(=O)OCCCCCCCCCCCCCCCC(=O)N(CCCN)C[C@@H](O)CCN)[C@]5(CCC[C@@H](C)O5)NC(=[N+]34)N2)O1`, the TGI in assay [1] was 0.793 µM; in assay [2] it was 1.16 µM; in assay [3], greater than 3.82 µM; in assay [4], 0.565 µM; in assay [5], 1.26 µM; in assay [6] it was 3.66 µM.
Take `CCCCNC(=S)Nc1nc(C(=O)NNS(=O)(=O)c2ccccc2)cs1`: the TGI was 97.7 µM in assay [1]; 69.5 µM in assay [2]; greater than 100 µM in assay [3]; greater than 100 µM in assay [4]; greater than 100 µM in assay [5].
Take `CCOC(=O)/C=C(/C(=O)OCC)n1cc(C)c(=O)n(Cc2cnnn2CCCCOC(C)=O)c1=O`: the TGI is 32.8 µM in assay [2], 38.3 µM in assay [3], greater than 100 µM in assay [4] and greater than 100 µM in assay [6].
`CO[P@]1(=O)O[C@@H](c2ccccc2)[C@H](O)[C@]1(O)c1ccccc1`: the TGI in assay [2], in assay [3], in assay [4], in assay [5] and in assay [6] was greater than 100 µM in each case.
Consider `CSc1n[n+](C)cc(N)c1N`, for which the TGI in assay [1], in assay [2], in assay [3], in assay [4], in assay [5] and in assay [6] was greater than 100 µM throughout.
In the case of `COc1ccc(CNc2nc3ccccc3nc2-c2cccs2)cc1`, the TGI in assay [1], in assay [2], in assay [3], in assay [4], in assay [5] and in assay [6] was greater than 100 µM throughout.
For `O=C(O)C(Cc1cccs1)C(=O)O`, the TGI in assay [1], in assay [2], in assay [3], in assay [4], in assay [5] and in assay [6] was greater than 100 µM throughout.
For `Cc1cc2ccccc2c[n+]1CC(=O)CC([O-])(C(F)(F)F)C(F)(F)F`, the TGI in assay [1], in assay [2], in assay [3], in assay [4], in assay [5] and in assay [6] was greater than 100 µM in each case.
Take `COc1cccc(/C=C/C2=NN(c3cccc(S(=O)(=O)O)c3)C3(C2)SCC(=O)N3c2nc3ccccc3s2)c1` (centres undefined): the TGI in assay [1], in assay [2], in assay [3], in assay [4], in assay [5] and in assay [6] was greater than 100 µM throughout.
On to `Cc1nc2c(Br)cc(Br)cc2c(=O)n1-c1ccccc1N`, for which the TGI in assay [1] was greater than 100 µM; in assay [2], 66.9 µM; in assay [3], greater than 100 µM; in assay [4], greater than 100 µM; in assay [5], greater than 100 µM; in assay [6], 99.6 µM.
With `Nc1cc(CO)cc(Nc2c3ccccc3nc3occc23)c1`, the TGI is greater than 100 µM in assay [1]; 73.7 µM in assay [2]; 90.8 µM in assay [3]; greater than 100 µM in assay [5]; greater than 100 µM in assay [6].
As to `CCN(CC)C(=O)CCCCCCCCC1CO1` (centres undefined), the TGI in assay [2], in assay [3], in assay [4], in assay [5] and in assay [6] was greater than 100 µM each time.
Consider `c1ccc(N=NNNc2ccc(-c3nc4ccccc4[nH]3)cc2)cc1`, for which the TGI in assay [2] was greater than 100 µM; in assay [3], greater than 100 µM; in assay [4], 94.6 µM; in assay [5] it was 77.3 µM; in assay [6], greater than 100 µM.
Consider `O=C(CSC1=NCCN1)c1ccccc1`, for which the TGI in assay [2], in assay [3], in assay [4], in assay [5] and in assay [6] was greater than 100 µM throughout.
As for `Clc1ccc(-c2nc(-c3ccc(Cl)cc3)[s+]s2)cc1`, the TGI in assay [1] was greater than 100 µM; in assay [2] it was greater than 100 µM; in assay [3] it was greater than 100 µM; in assay [4], greater than 100 µM; in assay [5], 77.7 µM.
Take `O=C1CC(c2cccc(Cl)c2)n2cccc21` (centres undefined): the TGI in assay [1], in assay [2], in assay [4] and in assay [6] was greater than 100 µM in each case.
`O=C(c1cccs1)N(C(=O)N1CCC(c2ccccc2)CC1)c1ccccc1`: the TGI in assay [2], in assay [3], in assay [4], in assay [5] and in assay [6] was greater than 100 µM throughout.
Turning to `O=C(CSc1nc2ccc(I)cc2c(=O)n1Cc1ccccc1)Nc1ccc(Br)cc1`, the TGI is greater than 100 µM in assay [2]; greater than 100 µM in assay [3]; greater than 100 µM in assay [4]; 61.6 µM in assay [5]; greater than 100 µM in assay [6].
As to `COC1CCC(OC2CC(C3(C)CCC4(CC(O)C(C)C(C(C)/C=C(\C)C(=O)C(C)CC(C)C(=O)O)O4)O3)OC3(OC(C4OC(O)(CO)C(C)CC4C)CC3C)C2C)OC1C` (centres undefined), the TGI in assay [1] came out at 1.61 µM; in assay [2], 1.66 µM; in assay [3] it was 16.2 µM; in assay [5] it was 0.103 µM; in assay [6], 3.13 µM.
`CC(=O)Nc1ccc(Nc2nc(=O)[nH]c(=O)[nH]2)cc1`: the TGI in assay [1], in assay [2], in assay [3], in assay [5] and in assay [6] was greater than 100 µM in each case.
As for `CC(NC(=O)C(NC(=O)OC(C)(C)C)C(C)C)C(=O)NCC(=O)O` (stereo not drawn) (Boc-Val-Ala-Gly-OH; configuration not given here), the TGI in assay [1], in assay [2], in assay [3], in assay [4] and in assay [5] was greater than 100 µM in each case.
Regarding `CCCCCC(C)C[C@H]1CO[C@H](c2ccc[nH]2)N[C@H]1C(=O)OC` (some centres undefined), the TGI in assay [1], in assay [2], in assay [3] and in assay [5] was greater than 100 µM each time.
Consider `C/C(=N/O)c1cccc(Nc2nc3ccccc3c3[nH]c4ccccc4c23)c1`, for which the TGI in assay [2] turned out to be 4.77 µM; in assay [3], 13.3 µM; in assay [4] it was 10.6 µM; in assay [5], 13.8 µM; in assay [6] it was 21 µM.

The record behind these values is PubChem BioAssay (NCI).
